Data taken from publication PMC5650409 (Oncotarget, 2017).

Legend:
[1] = Description: Urine and blood samples were collected at 15 min post-injection and blood was centrifuged (8000 rpm, 10 min) to separate out the plasma. Urine and plasma samples were analyzed by radio-TLC, as above.
[2] = Octanol-water partition coefficient determination; format: physicochemical; conditions: n-octanol / PBS pH 7.4
Description: After vortexing for 10 min, the tube was centrifuged (8000 rpm, 3 min) for layer separation. An aliquot of the aqueous and n-octanol layers was collected and measured by a γ-counter.

[3] = test system: T3M4 tumor-bearing nude mice; assay: In vivo biodistribution; conditions: n = 5
Description: All animal experiments were performed in adherence with the Peking Union Medical College Hospital (PUMCH) guidelines for the use of laboratory animals and were approved by PUMCH Clinical Center Animal Care and Use Committee. […] Zhang from the Department of General Surgery, Peking Union Medical College Hospital) and SK-BR-3 breast cancer cells (kindly supplied by Prof. Wei Ge from Department of Immunology, Institute of Basic Medical Sciences), into the right shoulder of female athymic nude mice (Laboratory Animal Center of PUMCH). Tumor sizes were monitored with a vernier caliper. […] After 72 h, those tumor-bearing mice with a visible mass in left thigh muscle, were selected and used as models with aseptic inflammation. […] At 5 min, 30 min, 60 min and 120 min after injection, mice were sacrificed by humane euthanasia - cervical dislocation. Blood was obtained through the eyeball, and tissues and organs of interests (brain, heart, lung, liver, pancreas, kidney, spleen, intestine, muscle, stomach, bone and tumor) were then weighed and counted. All measurements were background-subtracted and decay-corrected to the time of killing and then averaged. Radioactivity values were calculated and presented as the percentage injected dose per gram (%ID/g) of tissue.

[4] = test system: T3M4 tumor-bearing mice; assay: Small-animal PET imaging of T3M4 xenografts (with aseptic inflammation, with and without β-D-lactose blocking); format: in vivo; conditions: for tumor uptake (PET ROI-derived): T3M4 tumor, 60 min post-injection
Description: (§1) All animal experiments were performed in adherence with the Peking Union Medical College Hospital (PUMCH) guidelines for the use of laboratory animals and were approved by PUMCH Clinical Center Animal Care and Use Committee. The pancreatic cancer tumor-bearing models were generated by subcutaneous injection of 5 × 10^6 human T3M4 pancreatic cancer cells (kindly supplied by Prof. Taiping Zhang from the Department of General Surgery, Peking Union Medical College Hospital) and SK-BR-3 breast cancer cells (kindly supplied by Prof. Wei Ge from Department of Immunology, Institute of Basic Medical Sciences), into the right shoulder of female athymic nude mice (Laboratory Animal Center of PUMCH). Tumor sizes were monitored with a vernier caliper. When the tumor reached approximately 3-5 mm in diameter, T3M4 tumor-bearing mice were intramuscularly injected with 0.2 mL turpentine into the left hind leg muscle. After 72 h, those tumor-bearing mice with a visible mass in left thigh muscle, were selected and used as models with aseptic inflammation.
(§2) In vivo PET imaging was performed using a small-animal PET scanner Inveon (Siemens Medical systems, USA). […] Mice were anesthetized with isoflurane and placed on a heated pad (to provide the animal with warmth throughout the scanning). PET images were acquired at 30, 60, 90 and 120 min post-injection. After the acquisition, region of interests (ROIs), including tumor, muscle, brain and kidney were drawn over major organs on decay-corrected whole-body coronal images using Inveon Research Workplace 4.1 software. Radioactivity concentration of organs was obtained from the mean pixel values within the multiple ROI volume, and converted into MBq/mL using a conversion factor. Assuming the density of tissue was 1 g/cm^3, the ROIs were converted to MBq/g and then divided by the administered activity, to obtain an imaging ROI-derived %ID/g.

[5] = test system: SK-BR-3 tumor-bearing mice; assay: Small-animal PET imaging of SK-BR-3 xenografts; format: in vivo
Description: as §1, §2

[6] = In vitro stability in fetal bovine serum; format: in vitro ADME; conditions: 37 °C, 120 min
[7] = 15 min after intravenous injection, radio-TLC
[8] = SK-BR-3 xenografts, 60 min post-injection

SMILES: OC[C@H]1O[C@@H](O[C@H]2[C@H](O)[C@@H](O)[C@H](OCC[18F])O[C@@H]2CO)[C@H](O)[C@@H](O)[C@H]1O [^18F-FEL, 1'-^18F-fluoroethyl-β-D-lactose]
- percentage of intact probe in plasma [1, 7]: no less than 94%
- percentage of intact probe in urine [1, 7]: no less than 94%
- dehalogenation in vivo ([1]; plasma and urine 15 min after intravenous injection, supported by low bone uptake): Almost no dehalogenation was detected
- log P [2]: −2.62 ± 0.12
- Biodistribution, Blood ([3]; 5 min after injection): 9.58 ± 0.51 %ID/g
- Biodistribution, Bone ([3]; 5 min after injection): 1.34 ± 0.23 %ID/g
- Biodistribution, Brain ([3]; 5 min after injection): 0.67 ± 0.23 %ID/g
- Biodistribution, Heart ([3]; 5 min after injection): 3.81 ± 0.62 %ID/g
- Biodistribution, Intestine ([3]; 5 min after injection): 2.57 ± 0.30 %ID/g
- Biodistribution, Kidney ([3]; 5 min after injection): 19.4 ± 4.76 %ID/g
- Biodistribution, Liver ([3]; 5 min after injection): 2.12 ± 0.21 %ID/g
- Biodistribution, Lung ([3]; 5 min after injection): 2.29 ± 0.35 %ID/g
- Biodistribution, Muscle ([3]; 5 min after injection): 2.50 ± 0.15 %ID/g
- Biodistribution, Pancreas ([3]; 5 min after injection): 2.90 ± 1.28 %ID/g
- Biodistribution, Spleen ([3]; 5 min after injection): 1.89 ± 0.62 %ID/g
- Biodistribution, Stomach ([3]; 5 min after injection): 3.60 ± 0.64 %ID/g
- Biodistribution, Tumor ([3]; 5 min after injection): 6.67 ± 0.42 %ID/g
- Biodistribution, Blood ([3]; 30 min after injection): 2.31 ± 0.67 %ID/g
- Biodistribution, Bone ([3]; 30 min after injection): 0.60 ± 0.26 %ID/g
- Biodistribution, Brain ([3]; 30 min after injection): 0.16 ± 0.04 %ID/g
- Biodistribution, Heart ([3]; 30 min after injection): 0.88 ± 0.25 %ID/g
- Biodistribution, Intestine ([3]; 30 min after injection): 0.94 ± 0.16 %ID/g
- Biodistribution, Kidney ([3]; 30 min after injection): 9.59 ± 1.80 %ID/g
- Biodistribution, Liver ([3]; 30 min after injection): 1.36 ± 0.07 %ID/g
- Biodistribution, Lung ([3]; 30 min after injection): 1.91 ± 0.42 %ID/g
- Biodistribution, Muscle ([3]; 30 min after injection): 0.91 ± 0.12 %ID/g
- Biodistribution, Pancreas ([3]; 30 min after injection): 0.69 ± 0.33 %ID/g
- Biodistribution, Spleen ([3]; 30 min after injection): 0.77 ± 0.19 %ID/g
- Biodistribution, Stomach ([3]; 30 min after injection): 1.03 ± 0.33 %ID/g
- Biodistribution, Tumor ([3]; 30 min after injection): 3.24 ± 0.11 %ID/g
- Biodistribution, Blood ([3]; 60 min after injection): 0.87 ± 0.31 %ID/g
- Biodistribution, Bone ([3]; 60 min after injection): 0.31 ± 0.02 %ID/g
- Biodistribution, Brain ([3]; 60 min after injection): 0.10 ± 0.02 %ID/g
- Biodistribution, Heart ([3]; 60 min after injection): 0.38 ± 0.10 %ID/g
- Biodistribution, Intestine ([3]; 60 min after injection): 0.56 ± 0.35 %ID/g
- Biodistribution, Kidney ([3]; 60 min after injection): 4.35 ± 1.53 %ID/g
- Biodistribution, Liver ([3]; 60 min after injection): 0.83 ± 0.23 %ID/g
- Biodistribution, Lung ([3]; 60 min after injection): 0.71 ± 0.37 %ID/g
- Biodistribution, Muscle ([3]; 60 min after injection): 0.77 ± 0.30 %ID/g
- Biodistribution, Pancreas ([3]; 60 min after injection): 0.63 ± 0.34 %ID/g
- Biodistribution, Spleen ([3]; 60 min after injection): 0.56 ± 0.30 %ID/g
- Biodistribution, Stomach ([3]; 60 min after injection): 0.82 ± 0.61 %ID/g
- Biodistribution, Tumor ([3]; 60 min after injection): 1.03 ± 0.09 %ID/g
- Biodistribution, Blood ([3]; 120 min after injection): 0.29 ± 0.12 %ID/g
- Biodistribution, Bone ([3]; 120 min after injection): 0.12 ± 0.02 %ID/g
- Biodistribution, Brain ([3]; 120 min after injection): 0.06 ± 0.03 %ID/g
- Biodistribution, Heart ([3]; 120 min after injection): 0.20 ± 0.04 %ID/g
- Biodistribution, Intestine ([3]; 120 min after injection): 0.20 ± 0.07 %ID/g
- Biodistribution, Kidney ([3]; 120 min after injection): 2.08 ± 0.74 %ID/g
- Biodistribution, Liver ([3]; 120 min after injection): 0.59 ± 0.09 %ID/g
- Biodistribution, Lung ([3]; 120 min after injection): 0.38 ± 0.11 %ID/g
- Biodistribution, Muscle ([3]; 120 min after injection): 0.15 ± 0.07 %ID/g
- Biodistribution, Pancreas ([3]; 120 min after injection): 0.29 ± 0.07 %ID/g
- Biodistribution, Spleen ([3]; 120 min after injection): 0.30 ± 0.17 %ID/g
- Biodistribution, Stomach ([3]; 120 min after injection): 0.24 ± 0.17 %ID/g
- Biodistribution, Tumor ([3]; 120 min after injection): 0.65 ± 0.12 %ID/g
- accumulation in inflammatory tissue ([4]; T3M4-inflammation mice, 60 min after injection, PET): non-accumulation in inflammatory tissue
- tumor uptake (PET ROI-derived) ([4]; co-injection of β-D-lactose (15 mg/kg)): 2.36 ± 0.11 %ID/g
- tumor uptake (PET ROI-derived) ([4]; no blocking): 10.7 ± 1.01 %ID/g
- reduction of specific tumor accumulation in PET competition assay ([4]; co-injection of β-D-lactose): approximately 80%
- radioactivity uptake in SK-BR-3 tumor ([5]; SK-BR-3 breast tumor-bearing mice with no HIP/PAP expression, PET): low
- uptake ratio of tumor-to-blood [5, 8]: 0.37 ± 0.01
- uptake ratio of tumor-to-liver [5, 8]: 0.54 ± 0.01
- uptake ratio of tumor-to-muscle [5, 8]: 1.37 ± 0.05
- intact ^18F-FEL in fetal bovine serum [6]: greater than 95%
